Drawing on patent US12643886B2 (Ontario Institute for Cancer Research (OICR), priority 2021, dated 2026), this text covers IC50 for nine molecules.

One experiment deals with T1, Aurora A (Homo sapiens, UniProt O14965).
T1 sequence (O14965 1-403): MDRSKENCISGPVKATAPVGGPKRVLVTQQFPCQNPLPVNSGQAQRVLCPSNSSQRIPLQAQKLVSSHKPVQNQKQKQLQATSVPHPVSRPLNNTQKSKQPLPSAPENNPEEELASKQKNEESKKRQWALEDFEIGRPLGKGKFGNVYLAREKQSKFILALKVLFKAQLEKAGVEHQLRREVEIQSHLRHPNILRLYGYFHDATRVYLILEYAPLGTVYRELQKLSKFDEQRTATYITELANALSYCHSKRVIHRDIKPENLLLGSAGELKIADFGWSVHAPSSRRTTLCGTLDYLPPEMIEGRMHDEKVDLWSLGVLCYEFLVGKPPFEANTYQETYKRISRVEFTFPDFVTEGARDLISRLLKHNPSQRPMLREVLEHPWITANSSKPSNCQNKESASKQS
Description: Counter-screen against Aurora A. It counts as biochemical. Particulars: read-out: AUR-A (IC50). Summed up: (§1)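 Full-length recombinant NUAK2 incubated 40 min at room temperature in 8 mM MOPS pH 7.0, 0.2 mM EDTA, 10 mM magnesium acetate, 300 μM peptide substrate and 33P-ATP. Stopped with 0.5% phosphoric acid; filter-bound label counted by scintillation. IC50 reported as ranges; NUAK1 and Aurora A served as counter-screens.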

The next experiment concerns the target T2, NUAK1 (Homo sapiens, UniProt O60285).
T2 sequence (O60285 1-661): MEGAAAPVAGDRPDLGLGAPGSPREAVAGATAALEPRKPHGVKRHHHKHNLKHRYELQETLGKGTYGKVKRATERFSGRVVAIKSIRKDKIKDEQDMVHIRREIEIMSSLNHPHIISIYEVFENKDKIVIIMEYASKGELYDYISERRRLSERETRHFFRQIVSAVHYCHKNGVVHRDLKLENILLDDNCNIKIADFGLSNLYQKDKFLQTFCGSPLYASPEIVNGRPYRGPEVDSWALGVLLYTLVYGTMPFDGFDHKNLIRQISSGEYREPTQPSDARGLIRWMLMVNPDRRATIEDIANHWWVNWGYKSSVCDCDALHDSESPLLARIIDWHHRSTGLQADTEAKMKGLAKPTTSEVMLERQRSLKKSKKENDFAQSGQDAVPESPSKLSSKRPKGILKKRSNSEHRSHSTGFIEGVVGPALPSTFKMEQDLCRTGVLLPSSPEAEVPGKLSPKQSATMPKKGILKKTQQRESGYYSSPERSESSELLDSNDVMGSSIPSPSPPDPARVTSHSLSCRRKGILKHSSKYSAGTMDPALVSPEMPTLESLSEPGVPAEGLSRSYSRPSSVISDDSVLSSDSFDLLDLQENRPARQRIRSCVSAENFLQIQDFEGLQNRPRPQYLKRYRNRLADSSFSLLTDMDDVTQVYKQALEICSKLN
Description: Counter-screen against NUAK1. It counts as biochemical. Summed up:
as §1
(In general: A counterscreen serves to expose hits that act by an unwanted route or on another target.)

The next experiment relates to MDA-MB-231 cells. Description: Tumor cell growth inhibition assay (ATPlite, 5 days). The note with it: Homo sapiens, 120 h; breast tumor cell line MDA-MB-231, 5 days. Format: cell-based. As to the method: MDA-MB-231 cells were seeded into a 384-well plate at 1,000 cells/well in 50 μl medium (Alpha-MEM containing 10% FBS, […] Normocin, Invivogen and […] Gentamycin, Invitrogen). Plates were then incubated overnight for the cells to attach. An HP D300 digital dispenser was used to dose cells with DMSO or test compounds across a 16-point range of concentrations (high dose of 10 uM to low dose of 5 nM). Plates were incubated in a humidified 5% CO2 incubator at 37° C. After 5 days, plates were removed from the incubator and equilibrated to room temperature. An equal volume of ATPlite assay reagent was then added to each well, and samples processed according to manufacturer's instructions (Perkin Elmer). Luminescent signals were then measured using an Envision plate reader equipped with a US-Luminescence detector.
For orientation: In ATP-based viability assays light output follows the ATP content of the culture.

A further experiment concerns the target T3, NUAK2 (h) (Homo sapiens, UniProt Q9H093).
T3 construct: This assay was done radiometrically using full-length, recombinant enzyme; purchased Eurofins
T3 sequence (Q9H093 1-628): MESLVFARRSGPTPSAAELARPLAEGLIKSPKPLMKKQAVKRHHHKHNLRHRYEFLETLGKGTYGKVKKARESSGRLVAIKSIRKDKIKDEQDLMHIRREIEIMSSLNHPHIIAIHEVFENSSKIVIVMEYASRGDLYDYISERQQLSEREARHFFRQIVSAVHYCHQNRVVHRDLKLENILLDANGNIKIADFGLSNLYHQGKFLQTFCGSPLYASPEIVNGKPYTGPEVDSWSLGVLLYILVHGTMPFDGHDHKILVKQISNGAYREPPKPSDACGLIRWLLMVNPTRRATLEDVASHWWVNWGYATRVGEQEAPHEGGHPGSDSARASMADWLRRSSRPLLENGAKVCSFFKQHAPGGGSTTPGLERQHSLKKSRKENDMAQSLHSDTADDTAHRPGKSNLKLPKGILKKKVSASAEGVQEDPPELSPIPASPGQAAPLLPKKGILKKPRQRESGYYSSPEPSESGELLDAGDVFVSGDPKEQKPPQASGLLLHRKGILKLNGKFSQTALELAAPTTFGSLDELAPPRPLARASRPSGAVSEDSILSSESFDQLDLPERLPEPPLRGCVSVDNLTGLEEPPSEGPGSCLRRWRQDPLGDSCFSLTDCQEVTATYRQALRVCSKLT
Description: NUAK2 enzymatic assay (radiometric, Eurofins). Particulars: full-length recombinant enzyme. Format: biochemical. Summed up: as §1

The term IC50 denotes the concentration that gives 50% inhibition. Turning to `COc1cc2c(cc1Nc1ncc(C(F)(F)F)c(Nc3cccc4c3C(=O)NC4)n1)CCNC2` [Compound I-27], the half-inhibitory concentration (IC50) is over 1000 nM at Aurora A, 11 to 100 nM on NUAK1, 36 nM in the experiment with MDA-MB-231 cells and 11 to 100 nM on NUAK2 (h).
With `O=C1NCc2cccc(Nc3nc(Nc4ccc(N5C[C@@H]6C[C@H]5CN6)cc4OC(F)F)ncc3C(F)(F)F)c21` [Compound I-54, 7-((2-((4-((1S,4S)-2,5-diazabicyclo[2.2.1]heptan-2-yl)-2-(difluoromethoxy)phenyl)amino)-5-(trifluoromethyl)pyrimidin-4-yl)amino)isoindolin-1-one], the IC50 at Aurora A is over 1000 nM; against NUAK1 it was 11 to 100 nM; in the experiment with MDA-MB-231 cells it was 48 nM; on NUAK2 (h), 0.1 to 10 nM.
Turning to `CCN1CCN(C2CCN(c3ccc(Nc4ncc(C(F)(F)F)c(Nc5cccc6c5C(=O)NC6)n4)c(OC(F)F)c3)CC2)CC1` [Compound I-33, 7-((2-((2-(difluoromethoxy)-4-(4-(4-ethylpiperazin-1-yl)piperidin-1-yl)phenyl)amino)-5-(trifluoromethyl)pyrimidin-4-yl)amino)isoindolin-1-one], the half-maximal inhibitory concentration (IC50) is 101 to 1000 nM at Aurora A, 11 to 100 nM against NUAK1, 38 nM with MDA-MB-231 cells and 11 to 100 nM on NUAK2 (h).
As to `COc1cc(CN(C)C)ccc1Nc1ncc(Cl)c(Nc2cccc3c2C(=O)NC3)n1` [Compound I-63, 7-((5-chloro-2-((4-((dimethylamino)methyl)-2-methoxyphenyl)amino)pyrimidin-4-yl)amino)isoindolin-1-one], the half-maximal inhibitory concentration (IC50) was 101 to 1000 nM at Aurora A, 11 to 100 nM against NUAK1, 398 nM in the experiment on MDA-MB-231 cells and 0.1 to 10 nM on NUAK2 (h).
As for `O=C1NCc2cccc(Nc3nc(Nc4ccc(N5C[C@H]6CC[C@@H](C5)N6)cc4OC(F)F)ncc3C(F)(F)F)c21` [Compound I-59, 7-((2-((4-((1R,5S)-3,8-diazabicyclo[3.2.1]octan-3-yl)-2-(difluoromethoxy)phenyl)amino)-5-(trifluoromethyl)pyrimidin-4-yl)amino)isoindolin-1-one], the IC50 on Aurora A is 101 to 1000 nM; on NUAK1, 11 to 100 nM; in the experiment on MDA-MB-231 cells, 54 nM; at NUAK2 (h), 0.1 to 10 nM.
In the case of `O=C1NCc2cccc(Nc3nc(Nc4ccc(N5CCC(N6CCNCC6)CC5)cc4OC(F)F)ncc3Cl)c21` [Compound I-67, 7-((5-chloro-2-((2-(difluoromethoxy)-4-(4-(piperazin-1-yl)piperidin-1-yl)phenyl)amino)pyrimidin-4-yl)amino)isoindolin-1-one], the IC50 at Aurora A fell in the range of 101 to 1000 nM; at NUAK1, 11 to 100 nM; at NUAK2 (h), 0.1 to 10 nM.
The corresponding values for `COc1c(Nc2ncc(C(F)(F)F)c(Nc3cccc4c3C(=O)NC4)n2)ccc(N2CCC(N3CCCC3)CC2)c1F` [Compound I-37, 7-((2-((3-fluoro-2-methoxy-4-(4-(pyrrolidin-1-yl)piperidin-1-yl)phenyl)amino)-5-(trifluoromethyl)pyrimidin-4-yl)amino)isoindolin-1-one] are 11 to 100 nM, 11 to 100 nM and 0.1 to 10 nM.
The like results for `COc1cc2c(cc1Nc1ncc(C(F)(F)F)c(Nc3cccc4c3C(=O)NC4)n1)CCNCC2` [Compound I-44, 7-((2-((8-methoxy-2,3,4,5-tetrahydro-1H-benzo[d]azepin-7-yl)amino)-5-(trifluoromethyl)pyrimidin-4-yl)amino)isoindolin-1-one] were, in that order, 101 to 1000 nM, 101 to 1000 nM and 0.1 to 10 nM.
For `CC(C)N1C[C@@H]2C[C@H]1CN2c1ccc(Nc2ncc(C(F)(F)F)c(Nc3cccc4c3C(=O)NC4)n2)c(OC(F)F)c1` [Compound I-73, 7-((2-((2-(difluoromethoxy)-4-((1S,4S)-5-isopropyl-2,5-diazabicyclo[2.2.1]heptan-2-yl)phenyl)amino)-5-(trifluoromethyl)pyrimidin-4-yl)amino)isoindolin-1-one], the IC50 at Aurora A fell in the range of 101 to 1000 nM; on NUAK1, 0.1 to 10 nM; at NUAK2 (h), 0.1 to 10 nM.
